# Experimental data published in article PMC8151276, “An Integrated Approach toward NanoBRET Tracers for Analysis of GPCR Ligand Engagement” (Molecules, 2021).
# Legend:
# Assay type in all cases: binding
# ADORA3 = target: T1, ADORA3 (Homo sapiens, UniProt P0DMS8); assay: NanoBRET screen HiBiT-ADORA3 in HEK293
# T1 construct: purchased Promega (in-house HiBiT-GPCR construct library, NanoBRET)
# T1 sequence (P0DMS8 1-318): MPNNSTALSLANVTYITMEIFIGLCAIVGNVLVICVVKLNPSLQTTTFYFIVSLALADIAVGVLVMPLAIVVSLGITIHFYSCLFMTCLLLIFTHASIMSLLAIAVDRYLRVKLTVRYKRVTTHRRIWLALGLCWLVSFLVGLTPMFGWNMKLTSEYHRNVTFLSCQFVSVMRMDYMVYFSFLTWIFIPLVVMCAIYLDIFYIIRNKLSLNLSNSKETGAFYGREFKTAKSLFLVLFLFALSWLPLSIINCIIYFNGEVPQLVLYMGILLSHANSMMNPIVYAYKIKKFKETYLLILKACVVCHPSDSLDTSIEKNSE
# Description: (§1) Each tracer candidate was screened across the entire library of HiBiT-GPCR constructs using NanoBRET as the detection modality. As depicted in Figure 4A, the specificity of interactions was evaluated through decrease in BRET due to competitive displacement of a bound tracer by excess parental compound. Each tracer was analyzed for binding to each HiBiT-GPCR fusion in the absence and in the presence of competing parental compound. Briefly, HEK293 cells were transfected with HiBiT-GPCR constructs diluted into promoterless DNA to reduce expression and maximize translocation to the cell surface. Each tracer candidate was then screened at concentrations of 1 μM and 0.1 μM across cells expressing these fusions. Cells were treated for 1.5 h with tracer either alone or in the presence of 20 μM competing parental compound (i.e., control). BRET was measured upon addition of purified LgBiT and subsequent complementation with HiBiT genetically fused to a GPCR. The specificity of interactions was assessed through a decrease in BRET signal due to competitive displacement of the bound tracer. To further gauge the robustness of these interactions, the fold response over the control (i.e., BRETtracer/BRETcontrol) was calculated. We chose a 1.5-fold response, which translates to ≥7-fold signal over noise as the minimal threshold required to score an interaction as positive. […]. Below we highlight the screening results obtained for our exemplary fluorescent tracers based on Clozapine, Amitriptyline and AZD1283.
# (§2) HiBiT-GPCR DNA constructs were diluted in 10 mM Tris pH 8 to a final concentration of 0.01 μg/μL, arrayed in 96-well plates and stored at −20 °C. For transfection, HEK293 cells were suspended in Opti-MEM (without phenol red) supplemented with 2% fetal bovine serum (Seradigm) and 100 units/mL penicillin–streptomycin (Gibco) at a final concentration of 220,000 cells/mL and dispensed into white 96-well plates at 90 μL/well. Subsequent transfections and screens were carried using an Agilent Bravo Automated Liquid Handling Platform. First, the 96-well HiBiT DNA arrays were diluted 25-fold in Opti-MEM (without serum or phenol red) to a final concentration of 0.0004 μg/μL and 20 μL of the diluted DNAs were transferred into new 96-well plates. Next, promoterless carrier DNA (1 μg/μL) was diluted 25-fold (0.04 μg/μL) and then dispensed into the diluted arrays at 20 μL/well. Following brief mixing, Viafect transfection reagent (Promega) diluted 16-fold into Opti-MEM was dispensed into the plates at 40 μL/well. After mixing by pipetting, plates were incubated for 10 min on the pipetting station deck. The DNA-transfection reagent complexes were then added to plates containing cells. To facilitate the screen, 10 μL of DNA-transfection reagent complexes were added in duplicates to the top 4 and bottom 4 rows, resulting in two identical 48-well arrays per plate. Plates with transfected cells were incubated for 18–20 h at 37 °C/5% CO2. A screen of each tracer across the entire library using two different concentrations requires duplicate plates of transfected cells. Depending on the number of tracers being screened, transfections can be scaled up using the same ratios. The next day, for each tracer, four 20× screening solutions in tracer dilution buffer (Promega) were prepared: two duplicates at final concentration of 20 μM and two duplicates at a final concentration of 2 μM. A competing unmodified compound was added to one of each duplicate at a final concentration of 400 μM. The four resulting solutions were diluted 4-fold in Opti-MEM without serum or phenol red to generate 5× solutions (5 µM and 0.5 µM tracer +/− 100 μM competing compound). To screen the library, a BioTek MultiFlo FX liquid dispenser was used to dispense 22.5 µL of tracer solution to the top 4 rows and 22.5 µL tracer + competing compound solution to the 4 bottom rows. Plates were briefly mixed on an orbital shaker and incubated for 1.5 h at room temperature. […]
# CCKAR = target: T2, CCKAR (Homo sapiens, UniProt P32238); assay: NanoBRET screen HiBiT-CCKAR in HEK293
# T2 construct: purchased Promega (in-house HiBiT-GPCR construct library, NanoBRET)
# T2 sequence (P32238 1-428): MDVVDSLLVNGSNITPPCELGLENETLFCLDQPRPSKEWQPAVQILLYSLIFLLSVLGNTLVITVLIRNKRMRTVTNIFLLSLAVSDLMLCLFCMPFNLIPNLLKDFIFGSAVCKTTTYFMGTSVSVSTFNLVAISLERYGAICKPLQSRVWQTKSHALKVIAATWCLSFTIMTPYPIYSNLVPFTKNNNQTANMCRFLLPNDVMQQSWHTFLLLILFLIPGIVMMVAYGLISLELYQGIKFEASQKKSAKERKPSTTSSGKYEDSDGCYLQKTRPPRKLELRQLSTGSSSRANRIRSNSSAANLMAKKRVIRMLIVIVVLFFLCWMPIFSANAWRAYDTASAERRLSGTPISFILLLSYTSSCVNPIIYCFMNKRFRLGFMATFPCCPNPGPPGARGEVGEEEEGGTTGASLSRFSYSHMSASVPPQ
# Description: as §1, §2
# HTR1B = target: T3, HTR1B (Homo sapiens, UniProt P28222); assay: NanoBRET screen HiBiT-HTR1B in HEK293
# T3 construct: purchased Promega (in-house HiBiT-GPCR construct library, NanoBRET)
# T3 sequence (P28222 whole entry): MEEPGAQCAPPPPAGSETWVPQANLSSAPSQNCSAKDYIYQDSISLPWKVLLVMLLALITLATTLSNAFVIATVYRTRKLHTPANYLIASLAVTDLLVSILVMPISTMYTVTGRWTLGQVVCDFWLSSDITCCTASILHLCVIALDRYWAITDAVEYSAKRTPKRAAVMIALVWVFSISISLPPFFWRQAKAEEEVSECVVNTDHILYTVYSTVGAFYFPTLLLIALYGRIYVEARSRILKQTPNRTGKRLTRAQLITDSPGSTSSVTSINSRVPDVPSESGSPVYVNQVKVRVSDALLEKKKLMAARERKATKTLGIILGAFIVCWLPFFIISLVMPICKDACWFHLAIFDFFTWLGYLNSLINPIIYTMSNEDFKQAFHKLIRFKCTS
# Description: as §1, §2
# MC3R = target: T4, MC3R (Homo sapiens, UniProt P41968); assay: NanoBRET screen HiBiT-MC3R in HEK293; conditions: MC3R
# T4 construct: purchased Promega (in-house HiBiT-GPCR construct library, NanoBRET)
# T4 sequence (P41968 whole entry): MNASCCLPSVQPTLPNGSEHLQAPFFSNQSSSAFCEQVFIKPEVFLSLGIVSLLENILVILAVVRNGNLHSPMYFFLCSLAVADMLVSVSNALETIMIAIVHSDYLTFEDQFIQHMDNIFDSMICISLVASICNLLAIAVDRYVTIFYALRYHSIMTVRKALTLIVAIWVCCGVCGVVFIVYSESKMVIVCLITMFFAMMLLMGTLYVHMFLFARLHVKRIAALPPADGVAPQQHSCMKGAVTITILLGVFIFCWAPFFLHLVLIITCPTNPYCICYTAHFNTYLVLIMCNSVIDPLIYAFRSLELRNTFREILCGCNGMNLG
# Description: as §1, §2
# GHSR = target: T5, GHSR (Homo sapiens, UniProt Q92847); assay: NanoBRET screen HiBiT-GHSR in HEK293
# T5 construct: purchased Promega (in-house HiBiT-GPCR construct library, NanoBRET)
# T5 sequence (Q92847 whole entry): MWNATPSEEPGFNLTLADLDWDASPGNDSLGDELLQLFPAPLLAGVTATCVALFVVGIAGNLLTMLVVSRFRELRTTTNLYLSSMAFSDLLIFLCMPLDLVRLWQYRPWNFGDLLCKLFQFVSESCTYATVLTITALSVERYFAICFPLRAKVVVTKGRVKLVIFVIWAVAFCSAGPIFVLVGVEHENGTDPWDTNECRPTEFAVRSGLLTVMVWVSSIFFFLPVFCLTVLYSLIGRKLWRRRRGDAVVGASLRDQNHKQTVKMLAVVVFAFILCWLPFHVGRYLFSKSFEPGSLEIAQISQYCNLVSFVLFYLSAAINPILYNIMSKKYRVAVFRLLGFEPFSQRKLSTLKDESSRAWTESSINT
# Description: as §1, §2
# OPRK1 = target: T6, OPRK1 (Homo sapiens, UniProt P41145); assay: NanoBRET screen HiBiT-OPRK1 in HEK293
# T6 construct: purchased Promega (in-house HiBiT-GPCR construct library, NanoBRET)
# T6 sequence (P41145 whole entry): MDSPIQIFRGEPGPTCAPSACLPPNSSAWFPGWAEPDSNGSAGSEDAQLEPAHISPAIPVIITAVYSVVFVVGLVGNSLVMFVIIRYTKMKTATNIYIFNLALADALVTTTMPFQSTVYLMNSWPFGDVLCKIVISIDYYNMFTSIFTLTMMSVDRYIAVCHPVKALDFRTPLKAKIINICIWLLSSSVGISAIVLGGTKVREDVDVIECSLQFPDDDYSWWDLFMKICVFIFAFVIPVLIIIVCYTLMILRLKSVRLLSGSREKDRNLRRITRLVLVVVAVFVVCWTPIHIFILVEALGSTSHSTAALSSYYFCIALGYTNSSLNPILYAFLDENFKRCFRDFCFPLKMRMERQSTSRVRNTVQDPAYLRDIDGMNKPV
# Description: as §1, §2
structure (smiles),measurement,setting,value
CCOC(=O)c1cc(C#N)c(N2CCC(C(=O)NS(=O)(=O)Cc3ccccc3/C=C/C(=O)NCCNC(=O)CCc3ccc4n3[B-](F)(F)[N+]3=C(c5ccc[nH]5)C=CC3=C4)CC2)nc1C [AZD1283-1-NB590],NanoBRET Fold Response,"ADORA3; ADORA3, 0.1μM",1.11
same,NanoBRET Fold Response,"ADORA3; ADORA3, 1μM",1.09
same,NanoBRET Fold Response,"CCKAR; CCKAR, 0.1μM",1.08
same,NanoBRET Fold Response,"CCKAR; CCKAR, 1μM",1.11
same,NanoBRET Fold Response,"HTR1B; HTR1B, 0.1μM",0.89
same,NanoBRET Fold Response,"HTR1B; HTR1B, 1μM",0.99
same,NanoBRET Fold Response,MC3R; 0.1μM,1.00
same,NanoBRET Fold Response,MC3R; 1μM,0.98
same,NanoBRET Fold Response,"GHSR; GHSR, 0.1μM",1.01
same,NanoBRET Fold Response,"GHSR; GHSR, 1μM",1.04
same,NanoBRET Fold Response,"OPRK1; OPRK1, 0.1μM",0.98
same,NanoBRET Fold Response,"OPRK1; OPRK1, 1μM",0.99
N#CN/C(=N\CCNC(=O)c1ccc(N)cc1)NCCCOc1cccc(CN2CCCCC2)c1 [Aminopotentidine (unmodified)],NanoBRET Fold Response,"HTR1B; HTR1B, other tracers/Aminopotentidine (unmodified), 0.1μM",1.50
same,NanoBRET Fold Response,"HTR1B; HTR1B, other tracers/Aminopotentidine (unmodified), 1μM",1.48
same,NanoBRET Fold Response,"OPRK1; OPRK1, other tracers/Aminopotentidine (unmodified), 0.1μM",1.75
same,NanoBRET Fold Response,"OPRK1; OPRK1, other tracers/Aminopotentidine (unmodified), 1μM",1.55
N#CN=C(NCCCOc1cccc(CN2CCCCC2)c1)NCCNC(=O)CCOCCOCCOCCOCCNC(=O)CCc1ccc2n1[B-](F)(F)[N+]1=C(c3ccc[nH]3)C=CC1=C2 [Aminopotentidine-2-NB590],NanoBRET Fold Response,"ADORA3; ADORA3, tracer 0.1μM",1.16
same,NanoBRET Fold Response,"ADORA3; ADORA3, tracer 1μM",1.03
same,NanoBRET Fold Response,"CCKAR; CCKAR, tracer 0.1μM",0.98
same,NanoBRET Fold Response,"CCKAR; CCKAR, tracer 1μM",1.04
same,NanoBRET Fold Response,"HTR1B; HTR1B, tracer 0.1μM",0.98
same,NanoBRET Fold Response,"HTR1B; HTR1B, tracer 1μM",1.03
same,NanoBRET Fold Response,MC3R; tracer 0.1μM,1.00
same,NanoBRET Fold Response,MC3R; tracer 1μM,1.01
same,NanoBRET Fold Response,"GHSR; GHSR, tracer 0.1μM",0.98
same,NanoBRET Fold Response,"GHSR; GHSR, tracer 1μM",1.07
same,NanoBRET Fold Response,"OPRK1; OPRK1, tracer 0.1μM",1.14
same,NanoBRET Fold Response,"OPRK1; OPRK1, tracer 1μM",1.07
CN(C)CCC=C1c2ccccc2CCc2ccc(C(=O)NCCNC(=O)CCOCCOCCOCCOCCNC(=O)CCc3ccc4n3[B-](F)(F)[N+]3=C(c5ccc[nH]5)C=CC3=C4)cc21 [Amitriptyline-a-2-NB590],NanoBRET Fold Response,ADORA3; tracer at 0.1μM,1.00
same,NanoBRET Fold Response,ADORA3; tracer at 1μM,1.07
same,NanoBRET Fold Response,CCKAR; tracer at 0.1μM,1.03
same,NanoBRET Fold Response,CCKAR; tracer at 1μM,1.00
same,NanoBRET Fold Response,HTR1B; tracer at 0.1μM,0.98
same,NanoBRET Fold Response,GHSR; tracer at 0.1μM,0.97
same,NanoBRET Fold Response,GHSR; tracer at 1μM,1.04
same,NanoBRET Fold Response,OPRK1; tracer at 0.1μM,1.04
same,NanoBRET Fold Response,OPRK1; tracer at 1μM,1.02
